{"source": "paper PMC4728661", "about": "“Cancer Prevention and Health Benefices of Traditionally Consumed Borago officinalis Plants” (Nutrients, 2016)", "key": {"D. melanogaster [1]": {"system": "D. melanogaster", "assay": "Genotoxicity: Somatic Mutation and Recombination Test (SMART), wing spot test, simple treatments", "assay_type": "in vivo, Drosophila melanogaster", "settings": "H2O2 0.12 M alone (positive control)", "method": "The D. melanogaster system was selected for the determination of the safety of B. officinalis consumption as a well-recognized method to analyze vegetable complex mixtures using SMART [31, 32]. This test was used in order to evaluate the genotoxic and antigenotoxic activity of B. officinalis leaves and petioles as well as their selected bioactive compounds [33]. This activity was measured by direct visualization of the occurrence of recessive mutations in the wing hairs of two different D. melanogaster strains. Flies from experiments carried these visible wing genetic markers: the flare (flr) strain flr^3/ln (3LR) TM3, Bd^s and the multiple wing-hair (mwh) strain mwh/mwh. The marker flare (flr^3, 3_38.3) produces individual malformed hairs and the marker multiple wing hairs (mwh, 3_0.3) produces multiple hairs per cell. Larvae used in treatments come from two types of crosses: the standard cross with flr^3/TM3, Bd^S females mated to mwh/mwh males and the reciprocal cross.\nOptimal fertile flies were anesthetized under CO2 narcotisation for cross selection and then placed in new vials for fertilization. After that, hybrid eggs from crossing were collected over an 8 h period and emerged larvae (72 ± 4 h later) were cleaned up for a few seconds in sterile distilled water to remove feeding medium rests. For genotoxicity analysis (simple treatments), groups of 100 larvae were transferred into vials containing 0.85 g of Drosophila Instant Medium (Formula 4–24, Carolina Biological Supply, Burlington, NC, USA) wetted with 4 mL of a mixture of distilled water and increasing concentrations of samples: B. officinalis BF and WF (1.25, 2.5, and 5 mg·mL^−1), RO (0.35, 0.7, 1.39 and 2.78 mM), SY (0.16, 0.32, 0.63 and 1.26 mM), SI (0.15, 0.29, 0.58 and 1.16 mM) and the mixture of these three bioactive compounds at each concentration assayed individually. Bioactive compound concentrations were chosen on the basis of their known content in B. officinalis species. […] Larvae were fed on these media until pupation (about 48 h). After emergence, resulting adult flies were sacrificed under CO2 narcotisation and stored in a 70% ethanol solution in sterile water. Emerged adults were counted for toxicity evaluation and transheterozygous wings (mwh flr^+/mwh^+ flr^3) were mounted on microscope slides and wing hair mutations (spots) scored, using a photonic microscope (Nikon) at 400× magnification for genotoxicity and antigenotoxicity evaluation.\nFor the evaluation of genotoxic effects, the frequencies of spots per fly of each treated series were compared to the concurrent negative control for each class of mutational clone as well as between simple and combined treatments for the same concentration comparisons. […] A multiple-decision procedure was used to categorize results as positive, inconclusive or negative. Inconclusive and positive results were evaluated by the non-parametric U test of Mann, Whitney and Wilcoxon. The inhibition percentage (IP) of genotoxicity was calculated from the total frequencies of spots per wing, following this formula [42]: IP = (genotoxin alone − sample + genotoxin) × 100/(genotoxin alone)(2)"}, "D. melanogaster [2]": {"system": "D. melanogaster", "assay": "Toxicity: survival of Drosophila larvae to emerged adults, simple and combined (H2O2) treatments", "assay_type": "in vivo, Drosophila melanogaster", "settings": "H2O2 0.12 M alone (positive control)", "method": "Optimal fertile flies were anesthetized under CO2 narcotisation for cross selection and then placed in new vials for fertilization. After that, hybrid eggs from crossing were collected over an 8 h period and emerged larvae (72 ± 4 h later) were cleaned up for a few seconds in sterile distilled water to remove feeding medium rests. […] Bioactive compound concentrations were chosen on the basis of their known content in B. officinalis species. […] Larvae were fed on these media until pupation (about 48 h). After emergence, resulting adult flies were sacrificed under CO2 narcotisation and stored in a 70% ethanol solution in sterile water. […] The determination of Toxicity (T) of treatments in D. melanogaster was performed following this formula [39]: T = (N° of emerging individuals in treatment/N° of emerging individuals in the negative control) × 100(1) Differences in D. melanogaster survival between treatments at each concentration with respect to negative control were analyzed with a Chi-square test. This procedure was also performed for the analysis of each simple treatment with their correspondent combined treatment."}}, "note": "Marks after values point to notes of the source that are not given here."}
{"smiles": "OO", "note": "[H2O2, hydrogen peroxide, reference compound]", "values": [{"measurement": "Diagnosis, Small Single Spots 1–2 Cells m = 2", "setting": "D. melanogaster [1]", "value": "+"}, {"measurement": "Diagnosis, Total Spots m = 2", "setting": "D. melanogaster [1]", "value": "+"}, {"measurement": "Mutation rate, Large Single Spots >2 Cells m = 5", "setting": "D. melanogaster [1]", "value": "0.07 (11) spots/wing"}, {"measurement": "Mutation rate, Small Single Spots 1–2 Cells m = 2", "setting": "D. melanogaster [1]", "value": "0.60 (94) spots/wing"}, {"measurement": "Mutation rate, Total Spots m = 2", "setting": "D. melanogaster [1]", "value": "0.65 (109) spots/wing"}, {"measurement": "Mutation rate, Twin Spots m = 5", "setting": "D. melanogaster [1]", "value": "0.06 (4) spots/wing"}, {"measurement": "Survival", "setting": "D. melanogaster [2]", "value": "37.87 * %"}]}
